Test results from patent US12077503B2, “Substituted cyclic amides and their use as herbicides” (FMC CORPORATION, priority 2015, dated 2024).

Tests used:
Type in all cases: in vivo
[1] = tested on: Kochia (Kochia scoparia); test: Test A preemergence; settings: Bassia scoparia, pre-emergence, 240 h, 0 to 100 scale where 0 is no effect and 100 is complete control, read-out: Kochia plant response rating
Outline: (§1)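 Greenhouse, ~10 d after spray; visual injury vs untreated controls, 0 = no effect, 100 = complete control. Preemergence: directed soil spray over planted seeds. Postemergence: plants 2–10 cm, 1–2 leaf stage. Loam/sand blend. Compound in non-phytotoxic solvent with surfactant.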

[2] = tested on: giant foxtail (Setaria faberii); test: Test A preemergence; settings: Setaria faberi, pre-emergence, 240 h, 0 to 100 scale where 0 is no effect and 100 is complete control, read-out: Foxtail, Giant plant response rating
Outline: as §1

[3] = tested on: ragweed (common ragweed, Ambrosia elatior); test: Test A preemergence; settings: Ambrosia artemisiifolia, pre-emergence, 240 h, 0 to 100 scale where 0 is no effect and 100 is complete control, read-out: Ragweed plant response rating
Outline: as §1

[4] = tested on: barnyardgrass (Echinochloa crus-galli); test: Test A preemergence; settings: Echinochloa crus-galli, pre-emergence, 240 h, 0 to 100 scale where 0 is no effect and 100 is complete control, read-out: Barnyardgrass plant response rating
Outline: as §1

[5] = tested on: ryegrass, Italian (Italian ryegrass, Lolium multiflorum); test: Test A preemergence; settings: Lolium multiflorum, pre-emergence, 240 h, 0 to 100 scale where 0 is no effect and 100 is complete control, read-out: Ryegrass, Italian plant response rating
Outline: as §1

[6] = tested on: pigweed (Amaranthus retroflexus); test: Test A preemergence; settings: Amaranthus retroflexus, pre-emergence, 240 h, 0 to 100 scale where 0 is no effect and 100 is complete control, read-out: Pigweed plant response rating
[7] = tested on: sedge, umbrella (small-flower umbrella sedge, Cyperus difformis); test: Test B flooded paddy test; settings: Cyperus difformis, 250 g ai/ha, Flood; 0 to 100 scale where 0 is no effect and 100 is complete control; read-out: Sedge, Umbrella plant response rating
Outline: (§2)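 Greenhouse paddy pots with 2-leaf stage plants received compound by direct addition to floodwater 3 cm deep, kept at that level. Scored visually at 13–15 d versus controls (0 no effect; 100 complete control).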

[8] = tested on: ducksalad (Heteranthera limosa); test: Test B flooded paddy test; settings: Heteranthera limosa, 250 g ai/ha, Flood; 0 to 100 scale where 0 is no effect and 100 is complete control; read-out: Ducksalad plant response rating
Outline: as §2

[9] = tested on: barnyardgrass (Echinochloa crus-galli); test: Test B flooded paddy test; settings: Echinochloa crus-galli, 250 g ai/ha, Flood; 0 to 100 scale where 0 is no effect and 100 is complete control; read-out: Barnyardgrass plant response rating
Outline: as §2

[10] = tested on: rice (Oryra sativa); test: Test B flooded paddy test; settings: Oryza sativa, 250 g ai/ha, Flood; 0 to 100 scale where 0 is no effect and 100 is complete control; read-out: Rice plant response rating
Outline: as §2

[11] = tested on: Kochia (Kochia scoparia); test: Test A postemergence; settings: Bassia scoparia, post-emergence, 240 h, read-out: Kochia plant response rating (0 to 100 scale)
Outline: as §1

[12] = tested on: giant foxtail (Setaria faberii); test: Test A postemergence; settings: Setaria faberi, post-emergence, 240 h, read-out: Foxtail, Giant plant response rating (0 to 100 scale)
Outline: as §1

[13] = tested on: corn (Zea mays); test: Test A postemergence; settings: Zea mays, post-emergence, 240 h, read-out: Corn plant response rating (0 to 100 scale)
Outline: as §1

[14] = tested on: Galium (catchweed bedstraw, Galium aparine); test: Test A postemergence; settings: Galium, post-emergence, 240 h, read-out: Galium plant response rating (0 to 100 scale)
Outline: as §1

[15] = tested on: blackgrass (Alopecurus myosuroides); test: Test A postemergence; settings: Alopecurus myosuroides, post-emergence, 240 h, read-out: Blackgrass plant response rating (0 to 100 scale)
Outline: as §1

[16] = tested on: wheat (Triticum aestivum); test: Test A postemergence; settings: Triticum aestivum, post-emergence, 240 h, read-out: Wheat plant response rating (0 to 100 scale)
Outline: as §1

[17] = tested on: ragweed (common ragweed, Ambrosia elatior); test: Test A postemergence; settings: Ambrosia artemisiifolia, post-emergence, 240 h, read-out: Ragweed plant response rating (0 to 100 scale)
Outline: as §1

[18] = tested on: barnyardgrass (Echinochloa crus-galli); test: Test A postemergence; settings: Echinochloa crus-galli, post-emergence, 240 h, read-out: Barnyardgrass plant response rating (0 to 100 scale)
Outline: as §1

[19] = tested on: ryegrass, Italian (Italian ryegrass, Lolium multiflorum); test: Test A postemergence; settings: Lolium multiflorum, post-emergence, 240 h, read-out: Ryegrass, Italian plant response rating (0 to 100 scale)
Outline: as §1

[20] = tested on: pigweed (Amaranthus retroflexus); test: Test A postemergence; settings: Amaranthus retroflexus, post-emergence, 240 h, read-out: Pigweed plant response rating (0 to 100 scale)
Outline: as §1

[21] = 125 g ai/ha, preemergence, visual injury rating, approximately 10 d
[22] = 125 g ai/ha, postemergence, visual injury vs untreated controls after approx. 10 d, 0 = no effect, 100 = complete control
[23] = Postemergence, 31 g ai/ha, 0 is no effect, 100 is complete control

## N#Cc1ccc([C@H]2CNC(=O)[C@@H]2C(=O)Nc2cccc(F)c2F)cc1F [Compound 1193]
[1]; 31 g ai/ha, Preemergence
  pest or weed control at 31 g/ha: 0%
[1]; [21]
  pest or weed control at 125 g/ha: 0%
[2]; 31 g ai/ha, Preemergence
  pest or weed control at 31 g/ha: 0%
[2]; [21]
  pest or weed control at 125 g/ha: 80%
[3]; 31 g ai/ha, Preemergence
  pest or weed control at 31 g/ha: 0%
[3]; [21]
  pest or weed control at 125 g/ha: 0%
[4]; 31 g ai/ha, Preemergence
  pest or weed control at 31 g/ha: 40%
[4]; [21]
  pest or weed control at 125 g/ha: 90%
[5]; 31 g ai/ha, Preemergence
  pest or weed control at 31 g/ha: 0%
[5]; [21]
  pest or weed control at 125 g/ha: 0%
[6]; 31 g ai/ha, Preemergence
  pest or weed control at 31 g/ha: 0%
[6]; [21]
  pest or weed control at 125 g/ha: 0%
[7]
  pest or weed control at 250 g/ha: 0%
[8]
  pest or weed control at 250 g/ha: 90%
[9]
  pest or weed control at 250 g/ha: 75%
[10]
  pest or weed control at 250 g/ha: 30%
[11]; [22]
  pest or weed control at 125 g/ha: 0%
[11]; [23]
  pest or weed control at 31 g/ha: 0%
[12]; [22]
  pest or weed control at 125 g/ha: 30%
[12]; [23]
  pest or weed control at 31 g/ha: 0%
[13]; [22]
  plant injury at 125 g/ha: 0%
[13]; [23]
  plant injury at 31 g/ha: 0%
[14]; [22]
  pest or weed control at 125 g/ha: 0%
[14]; [23]
  pest or weed control at 31 g/ha: 0%
[15]; [22]
  pest or weed control at 125 g/ha: 0%
[15]; [23]
  pest or weed control at 31 g/ha: 0%
[16]; [22]
  plant injury at 125 g/ha: 0%
[16]; [23]
  plant injury at 31 g/ha: 0%
[17]; [22]
  pest or weed control at 125 g/ha: 0%
[17]; [23]
  pest or weed control at 31 g/ha: 0%
[18]; [22]
  pest or weed control at 125 g/ha: 70%
[18]; [23]
  pest or weed control at 31 g/ha: 0%
[19]; [22]
  pest or weed control at 125 g/ha: 0%
[19]; [23]
  pest or weed control at 31 g/ha: 0%
[20]; [22]
  pest or weed control at 125 g/ha: 0%
[20]; [23]
  pest or weed control at 31 g/ha: 0%
